In US20080139842A1, “Medicament for preventive and/or therapeutic treatment of diseases with secretory disorder” (R&R INC., priority 2006, published 2008):

How the values were obtained:
Type in all cases: in vivo, female NOD/Shi Jic mice
[1] = tested on: NOD mice (spontaneous type I diabetes model); experiment: Evaluation in NOD mice: weekly urinalysis for urinary sugar (diabetes onset); settings: 1 mg/kg mixed in feed over 19 weeks from 6 weeks of age, N = 6, positive = urinary glucose 2,000 mg/dl or higher, control group 2/6
Text: (§1) NOD mice have been used as spontaneous type I diabetes and Sjoegren's syndrome model animals. Lymphocyte infiltration lesions similar to those of type I diabetes are developed in the pancreatic islets of Langerhans, and lymphocyte infiltration lesions similar to those of Sjoegren's syndrome are developed in the salivary glands (Eur. J. Immunol., 28, pp. 3336-3345, 1998). To female NOD/Shi Jic mice at 6 weeks of age, tamibarotene (Am80, 4-[(5,6,7,8-tetrahydro-5,5,8,8-tetramethyl-2-naphthalenyl)carbamoyl]benzoic acid) was administered over 19 weeks by mixing it in feed. During the test period, urinalysis was conducted once every week to measure urinary sugar. Test paper for urinalyses, Pre Test 3aII (Wako Pure Chemical Industries), was immersed in mouse fresh urine, and when a determined glucose value was 2,000 mg/dl or higher, the mouse was judged to be with diabetes. When the mice gave a sign of physical agony, they were euthanized. After the end of the administration period, pancreases and submaxillary glands were extracted from the euthanized mice, and fixed by immersion in a neutrally buffered 10% formalin fixation solution. From the fixed pancreases and submaxillary glands, hematoxin-eosin stained histopathological specimens were prepared, and the influence of tamibarotene on the pancreases and salivary glands was histopathologically evaluated. […]

[2] = tested on: submaxillary glands of NOD mice; experiment: Evaluation in NOD mice: histopathological evaluation of submaxillary glands (Sjoegren's syndrome model); settings: 1 mg/kg mixed in feed over 19 weeks, N = 6, score 0 no lesion to 3 severe, control group 1.7
Text: as §1

[3] = tested on: pancreatic islets of Langerhans of NOD mice; experiment: Evaluation in NOD mice: histopathological evaluation of pancreases (islets of Langerhans); settings: 1 mg/kg mixed in feed over 19 weeks, N = 6; for Pancreatic La islet lymphocyte infiltration score (average): score 0 no lesion, 1 slight, 2 moderate, 3 severe, control group 2.7
Text: NOD mice have been used as spontaneous type I diabetes and Sjoegren's syndrome model animals. Lymphocyte infiltration lesions similar to those of type I diabetes are developed in the pancreatic islets of Langerhans, and lymphocyte infiltration lesions similar to those of Sjoegren's syndrome are developed in the salivary glands (Eur. J. Immunol., 28, pp. 3336-3345, 1998). To female NOD/Shi Jic mice at 6 weeks of age, tamibarotene (Am80, 4-[(5,6,7,8-tetrahydro-5,5,8,8-tetramethyl-2-naphthalenyl)carbamoyl]benzoic acid) was administered over 19 weeks by mixing it in feed. During the test period, urinalysis was conducted once every week to measure urinary sugar. Test paper for urinalyses, Pre Test 3aII (Wako Pure Chemical Industries), was immersed in mouse fresh urine, and when a determined glucose value was 2,000 mg/dl or higher, the mouse was judged to be with diabetes. When the mice gave a sign of physical agony, they were euthanized. After the end of the administration period, pancreases and submaxillary glands were extracted from the euthanized mice, and fixed by immersion in a neutrally buffered 10% formalin fixation solution. From the fixed pancreases and submaxillary glands, hematoxin-eosin stained histopathological specimens were prepared, and the influence of tamibarotene on the pancreases and salivary glands was histopathologically evaluated. For each of the tamibarotene-administered group and the control group, 6 mice were used.
The results are indicated by numbers of urinary sugar positive mice, scores for destruction of the pancreatic islets of Langerhans (henceforth occasionally abbreviated as “Pancreatic La islet”) associated with lymphocyte infiltration (Pancreatic La islet lymphocyte infiltration score), scores for decrease in number of the pancreatic islets of Langerhans (Pancreatic La islet number score), and submaxillary gland lymphocyte infiltration scores. The scores were determined according to the following criteria.
0: No lesion was observed

## CC1(C)CCC(C)(C)c2cc(NC(=O)c3ccc(C(=O)O)cc3)ccc21 [Tamibarotene, 4-[(5,6,7,8-tetrahydro-5,5,8,8-tetramethyl-2-naphthalenyl)carbamoyl]benzoic acid]
[1]
  Urinary sugar positive mice: 0/6
[1]; listed as tamibarotene
  Urinary sugar positive mice: no urinary sugar positive mouse was observed
[2]
  Submaxillary gland lymphocyte infiltration score (average): 0.8
[2]; listed as tamibarotene
  Submaxillary gland lymphocyte infiltration score (average): reduced
[3]
  Pancreatic La islet lymphocyte infiltration score (average): 1.7
[3]; listed as tamibarotene
  Pancreatic La islet lymphocyte infiltration score (average): apparently reduced
[3]; score for decrease in number of islets, score 0 no lesion to 3 severe, control group 1
  Pancreatic La islet number score (average): 0
